In US12419871B2, “Biomolecules involved in Alzheimer's disease” (ELECTROPHORETICS LIMITED, priority 2015, dated 2025):
Where “and” joins values, the source holds several entries; their conditions need not be identical. Identical values can stand only once. Entries after “also recorded” stand apart in the source; their conditions may differ.

Tested on: TMHT (Thy-1 Mutated Human Tau) mice
Assay: SysQuant analysis of protein and phosphorylation changes in brains of TMHT mice treated with CK1d inhibitors
Assay type: in vivo, mouse
Conditions: for Mouse brain Log 2 Ck1 inhibitor: 2′,3′-cyclic-nucleotide 3′-phosphodiesterase / Mouse brain Log 2 Ck1 inhibitor: phosphatase 1 regulatory subunit 14A / effect of treatment on protein phosphatase 1 regulatory subunit 14A level in mouse brain (in words) / effect of treatment on 2′,3′-cyclic-nucleotide 3′-phosphodiesterase level in mouse brain (in words): 30 mg/kg; for effect of treatment on protein phosphatase 1 regulatory subunit 14A level in mouse brain (in words) / effect of treatment on 2′,3′-cyclic-nucleotide 3′-phosphodiesterase level in mouse brain (in words): TMHT model, treated orally 30 mg/kg; for effect of treatment on protein phosphatase 1 regulatory subunit 14A level in mouse brain (in words): versus vehicle alone (FIG. 5B); for effect of treatment on 2′,3′-cyclic-nucleotide 3′-phosphodiesterase level in mouse brain (in words): versus vehicle alone (FIG. 6B); for number of human tau peptides significantly (p<0.05) regulated in the hippocampi of treated mice: of 124 unique quantified peptides from human tau, 30 mg/kg orally
Description: Starting at 8.5 months (±2 weeks) of age, TMHT mice received CK1d inhibitors 2-Methyl-amino-3-[(4-fluorophenyl)carbonyl]indolizine-1-carboxamide (PS278-05), 5-(1,3-benzoxazol-2-yl)-4-(pyridine-4-yl)pyrimidin-2-amine (PS110), compound PF4800567 (3-[(3-Chlorophenoxy)methyl]-1-(tetrahydro-2H-pyran-4-yl)-1H-pyrazolo[3,4-d]pyrimidin-4-amine; Tocris®) or vehicle (0.5% w/v methylcellulose) for 8 weeks (54 applications) at a dosage of 30 mg/kg body weight, orally via gavage.
In total 48 animals were used and allocated to 4 treatment groups.
Brain samples were collected within 10 minutes of euthanasia, washed in ice cold saline, transferred to a clean Eppendorf tube and immediately frozen in liquid nitrogen.
One hippocampus sample (left or right) from each of three animals in each of the vehicle, PS110 and PS278-05 groups were selected for analysis by SysQuant. A pool of all nine samples was also prepared as a reference channel. All TMT® labelling, mixing and mass spectrometry and bioinformatics studies were performed essentially as described in Section 4.1. For peptide and protein identification the UniProtKB mouse database was used, supplemented by inclusion of all human tau isoform entries.
All protein identification, peptide sequence, phosphorylation site information along with quantitative values and biological information relating to the peptide, protein and phosphorylation sites were assembled in a Microsoft Excel file (QuantSheet) to allow structured data analysis based on fold-change, significance, biological function and cellular localisation.
Similarly, the expression levels of total tau and for each phosphorylated serine, threonine and tyrosine amino acid in mouse brains following treatment with vehicle control or the CK1d inhibitors PS278-05 and PS110 were calculated.
All peptides that matched the human MAPT (P10636; SEQ ID NO:29) UniProt sequence and/or the mouse MAPT (P10637) were exported into a separate Microsoft Excel sheet. Ion intensity values for each phosphopeptide were summed and the average calculated for each treatment group (Vehicle control, PS110, PS278-05).

[1] = TMHT mice, hippocampus, 30 mg/kg orally via gavage, 8 weeks

Nc1ncc(-c2nc3ccccc3o2)c(-c2ccncc2)n1 [PS110, 5-(1,3-benzoxazol-2-yl)-4-(pyridin-4-yl)pyrimidin-2-amine]
Mouse brain Log 2 Ck1 inhibitor: Actin, alpha cardiac muscle 1 [1]: 0.58
Mouse brain Log 2 Ck1 inhibitor: Antithrombin-III [1]: 0.57
Mouse brain Log 2 Ck1 inhibitor: BH3-interacting domain death agonist [1]: −0.53
Mouse brain Log 2 Ck1 inhibitor: Catenin delta-1 [1]: −2.26
Mouse brain Log 2 Ck1 inhibitor: Clathrin light chain B [1]: 0.70
Mouse brain Log 2 Ck1 inhibitor: Fibrinogen gamma chain [1]: 1.01
Mouse brain Log 2 Ck1 inhibitor: GMP reductase 1 [1]: 0.68
Mouse brain Log 2 Ck1 inhibitor: Guanine nucleotide-binding protein G(q) subunit alpha [1]: 0.82
Mouse brain Log 2 Ck1 inhibitor: Insulin-like growth factor-binding protein [1]: −0.53
Mouse brain Log 2 Ck1 inhibitor: KxDL motif-containing protein 1 [1]: −0.58
Mouse brain Log 2 Ck1 inhibitor: Myelin-associated oligodendrocyte basic protein [1]: 0.84
Mouse brain Log 2 Ck1 inhibitor: Neutral alpha-glucosidase AB [1]: 0.52
Mouse brain Log 2 Ck1 inhibitor: Nuclear pore complex protein Nup155 [1]: −0.53
Mouse brain Log 2 Ck1 inhibitor: Protein KIAA1045 [1]: −0.63
Mouse brain Log 2 Ck1 inhibitor: Secernin-2 [1]: −0.76
Mouse brain Log 2 Ck1 inhibitor: Serum albumin [1]: 0.69
Mouse brain Log 2 Ck1 inhibitor: Short-chain specific acyl-CoA dehydrogenase, mitochondrial [1]: 0.54
Mouse brain Log 2 Ck1 inhibitor: Syntaphilin [1]: −0.71
Mouse brain Log 2 Ck1 inhibitor: Transmembrane protein 119 [1]: −0.66
Mouse brain Log 2 Ck1 inhibitor: cAMP-dependent protein kinase type 1 [1]: 0.53
Mouse brain Log 2 Ck1 inhibitor: 2′,3′-cyclic-nucleotide 3′-phosphodiesterase [1]: 0.63 and 0.57
Mouse brain Log 2 Ck1 inhibitor: phosphatase 1 regulatory subunit 14A [1]: 0.71 and 0.69
effect of treatment on protein phosphatase 1 regulatory subunit 14A level in mouse brain (in words): altering the concentration or amount; also recorded: upregulated
effect of treatment on protein phosphatase 1 regulatory subunit 14A level in mouse brain (in words) (listed as 5-(1,3-benzoxazol-2-yl)-4-(pyridine-4-yl)pyrimidin-2-amine): up-regulation
effect of treatment on 2′,3′-cyclic-nucleotide 3′-phosphodiesterase level in mouse brain (in words): altering the concentration or amount; also recorded: upregulated
number of human tau peptides significantly (p<0.05) regulated in the hippocampi of treated mice (TMHT mice, 8 weeks): 37

NC(=O)c1c(N)c(C(=O)c2ccc(F)cc2)n2ccccc12 [PS278, 2-amino-3-[(4-fluorophenyl)carbonyl]indolizine-1-carboxamide]
Mouse brain Log 2 Ck1 inhibitor: BH3-interacting domain death agonist [1]: −0.56
Mouse brain Log 2 Ck1 inhibitor: Catenin delta-1 [1]: −1.07
Mouse brain Log 2 Ck1 inhibitor: Centrosomal protein of 170 kDa [1]: −0.51
Mouse brain Log 2 Ck1 inhibitor: Clathrin light chain B [1]: 0.50
Mouse brain Log 2 Ck1 inhibitor: Egl nine homolog 1 [1]: -0.73
Mouse brain Log 2 Ck1 inhibitor: Guanine nucleotide-binding protein G(q) subunit alpha [1]: 0.62
Mouse brain Log 2 Ck1 inhibitor: Lambda-crystallin homolog [1]: 0.56
Mouse brain Log 2 Ck1 inhibitor: Myelin-associated oligodendrocyte basic protein [1]: 0.66
Mouse brain Log 2 Ck1 inhibitor: Neutral alpha-glucosidase AB [1]: −0.78
Mouse brain Log 2 Ck1 inhibitor: OCIA domain-containing protein 1 [1]: −0.59
Mouse brain Log 2 Ck1 inhibitor: Secernin-2 [1]: −0.52
Mouse brain Log 2 Ck1 inhibitor: Short-chain specific acyl-CoA dehydrogenase, mitochondrial [1]: 0.57
Mouse brain Log 2 Ck1 inhibitor: Synaptoporin [1]: 0.72
Mouse brain Log 2 Ck1 inhibitor: Syntaphilin [1]: −0.76
Mouse brain Log 2 Ck1 inhibitor: Transmembrane protein 119 [1]: −0.52
Mouse brain Log 2 Ck1 inhibitor: Tubulin alpha chain-like 3 [1]: 0.67
Mouse brain Log 2 Ck1 inhibitor: 2′,3′-cyclic-nucleotide 3′-phosphodiesterase [1]: 0.62 and 0.63
Mouse brain Log 2 Ck1 inhibitor: phosphatase 1 regulatory subunit 14A [1]: 0.49 and 0.71

CNc1c(C(N)=O)c2ccccn2c1C(=O)c1ccc(F)cc1 [PS278-05, 2-Methyl-amino-3-[(4-fluorophenyl)carbonyl]indolizine-1-carboxamide]
effect of treatment on protein phosphatase 1 regulatory subunit 14A level in mouse brain (in words): up-regulation; also recorded: altering the concentration or amount; also recorded: upregulated
effect of treatment on 2′,3′-cyclic-nucleotide 3′-phosphodiesterase level in mouse brain (in words): altering the concentration or amount; also recorded: upregulated
number of human tau peptides significantly (p<0.05) regulated in the hippocampi of treated mice (TMHT mice, 8 weeks): 22
